Results taken from patent US5393761A, “3-arylindole compounds” (H. Lundbeck A/S, priority 1990, dated 1995).
Where a name gives a salt, the structure may show the parent alone.

Key:
[1] = target: dopamine D-2 receptors in rat corpus striatum (Rattus norvegicus, UniProt P61169); experiment: Inhibition of ^3H-spiperone (spiroperidol) binding to dopamine D-2 receptors in rat corpus striatum in vitro; details: 0.5 nM ^3H-spiperone, rat striatum membranes, 37° C., 10 min
Experimental: By this method the inhibition by drugs of the binding of ^3 H-spiperone (=^3 H-spiroperidol) (0.5 nM) to dopamine D-2 receptors in membranes from rat corpus striatum is determined in vitro. Method and results in Hyttel & Larsen, J. Neurochem, 44, 1615-1622, 1985).
Male Wistar (Mol:Wistar) rats (125-250 g) are sacrificed and striatal tissue is dissected and weighed. The tissue is homogenized (Ultra Turrax, 10 sec.) in 10 ml of ice-cold 50 mM K-phosphate buffer pH 7.4 (at 25° C.). The homogenate is centrifuged twice at 20,000 g for 10 min. at 4° C. with rehomogenization of the pellet in 10 ml ice-cold buffer. The final pellet is homogenized in 1300 vol (w/v) ice-cold buffer.
Incubation tubes kept on ice in triplicate receive 100 μl of drug solution in water (or water for total binding) and 4000 μl Of tissue suspension (final tissue content corresponds to 3.08 mg original tissue). The binding experimental is initiated by addition of 100 μl of ^3 H-spiperone (final concentration 0.5 nM) and by placing the tubes in a 37° C. water bath. After incubation for 10 min. the samples are filtered under vacuum (0-50 mBar) through Whatman GF/F filters (25 mm). The tubes are rinsed with 5 ml ice-cold buffer which are then poured on the filters. Thereafter, the filters are washed with 2×5 ml of buffer. The filters are placed in counting vials and 4 ml of appropriate scintillation fluid (e.g. Picofluor ™15) are added. After shaking for 1 h and storage 2 hrs in the dark the content of radioactivity is determined by liquid scintillation counting. Specific binding is obtained by subtracting the nonspecific binding in the presence of 10 μM of 6,7-ADTN.
For determination of the inhibition of binding five concentrations of drugs covering 3 decades are used.
The measured cpm are plotted against drug concentration on semilogarithmic paper and the best fitting S-shaped curve is drawn. […] England, specific activity 15-25 Ci/mmol.

[2] = target: T1, serotonin S2 (5-HT2) receptors in rat cortex (Rattus norvegicus, UniProt P14842); experiment: Inhibition of ^3H-ketanserin binding to serotonin S2 (5-HT2) receptors in rat cortex in vitro; details: 0.5 nM ^3H-ketanserin, rat cortex membranes, 37° C., 30 min
T1 construct: Serotonin S2 (5-HT2) receptors in membranes from rat; from tissue; host or cells: cerebral cortex membranes of male Wistar rats (printed 'conical tissue', a misprint for cortical)
Experimental: Method in Hyttel, Pharmacology & Toxicology, 61, 126-129, 1987.
Male Wistar (Mol:Wist) rats (125-250 g) are sacrificed and conical tissue is dissected and weighed. The tissue is homogenized (Ultra Turrax, 10 sec.) in 10 ml of ice-cold 50 mM tris buffer pH 7.7 (at 25° C.). The centrifuge glassware used in this step has been rinsed by sonication for 10 min. in ethanol. The homogenate is centrifuged twice at 20,000 g for 10 min. at 4° C. with rehomogenization of the pellet in 10 ml ice-cold buffer. The final pellet is homogenized in 500 vol (w/v)ice-cold buffer.
Incubation tubes kept on ice in triplicate receive 100 μl Of drug solution in water (or water for total binding) and 2000 μl of tissue suspension (final tissue content corresponds to 4 mg original tissue). […] After incubation for 30 min. the samples are filtered under vacuum (0-50 mBar) through Whatman GF/F filters (25 mm). The tubes are rinsed with 5 ml ice-cold buffer which are then poured on the filters. Thereafter, the filters are washed with 2×5 ml of buffer. The filters are placed in counting vials and 4 ml of appropriate scintillation fluid (e.g. Picofluor ™15) are added. After shaking for 1 h and storage 2 hrs in the dark the content of radioactivity is determined by liquid scintillation counting. Specific binding is obtained by subtracting the nonspecific binding in the presence of 1 μM mianserin. For determination of the inhibition of binding five concentrations of drugs covering 3 decades are used.
The IC50 value is determined as the concentration at which the binding is 50% of the total binding in control samples minus the nonspecific binding in the presence of 1 μM mianserin.

Sequence of dopamine D-2 receptors in rat corpus striatum (P61169 whole entry): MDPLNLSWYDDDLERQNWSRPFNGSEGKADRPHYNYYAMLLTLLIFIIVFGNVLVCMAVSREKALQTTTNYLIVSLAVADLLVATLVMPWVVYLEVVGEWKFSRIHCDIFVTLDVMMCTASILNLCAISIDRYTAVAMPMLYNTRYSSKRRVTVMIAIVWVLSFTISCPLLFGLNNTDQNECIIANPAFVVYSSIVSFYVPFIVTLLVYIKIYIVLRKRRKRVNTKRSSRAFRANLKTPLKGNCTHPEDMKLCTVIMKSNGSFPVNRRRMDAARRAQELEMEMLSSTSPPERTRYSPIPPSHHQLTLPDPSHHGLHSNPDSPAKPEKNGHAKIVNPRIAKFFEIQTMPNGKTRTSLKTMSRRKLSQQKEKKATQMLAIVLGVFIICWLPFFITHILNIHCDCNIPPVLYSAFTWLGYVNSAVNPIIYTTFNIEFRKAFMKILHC
T1 sequence (P14842 whole entry): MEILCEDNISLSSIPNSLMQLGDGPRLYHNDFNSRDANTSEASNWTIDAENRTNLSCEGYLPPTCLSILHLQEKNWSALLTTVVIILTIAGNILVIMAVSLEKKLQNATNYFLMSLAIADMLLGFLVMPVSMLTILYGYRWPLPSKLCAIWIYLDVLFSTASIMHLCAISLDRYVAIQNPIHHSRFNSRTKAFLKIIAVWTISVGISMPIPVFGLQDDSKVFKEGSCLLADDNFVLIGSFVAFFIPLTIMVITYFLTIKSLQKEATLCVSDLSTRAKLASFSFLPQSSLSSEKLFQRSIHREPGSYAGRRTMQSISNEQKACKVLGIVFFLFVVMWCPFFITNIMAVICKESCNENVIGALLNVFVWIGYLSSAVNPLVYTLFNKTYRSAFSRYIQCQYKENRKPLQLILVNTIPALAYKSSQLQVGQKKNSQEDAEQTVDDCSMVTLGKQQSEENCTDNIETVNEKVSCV

Row | SMILES | IC50 [1] [nM] | IC50 [2] [nM]
1 | O=C1NCCN1CCN1CC=C(n2cc(-c3ccc(F)cc3)c3cc(C(F)(F)F)ccc32)CC1 [Compound 6f, 3-(4-Fluorophenyl)-1-[1-[2-(imidazolidin-2-on-1-yl)ethyl]-1,2,3,6-tetrahydropyridin-4-yl]-5-trifluoromethyl-1H-indole] | 440 | 3.6
2 | Cc1ccc2c(c1)c(-c1ccc(F)cc1)cn2C1CCN(CCNC(=O)N(C)C)CC1 [Compound 13b, 1-[1-[2-(3,3-Dimethyl-1-ureido)ethyl]-4-piperidyl]-3-(4-fluorophenyl)-5-methyl-1H-indole] | 260 | 2.3
3 | CC(C)N1CCN(CCN2CCC(n3cc(-c4ccc(F)cc4)c4cc(C(F)(F)F)ccc43)CC2)C1=O [Compound 4v, 3-(4-Fluorophenyl)-1-[1-[2-[3-(2-propyl)imidazolidin-2-on-1-yl]ethyl]-4piperidyl]-5-trifluoromethyl-1H-indole] | > 1000 | 11
4 | CC(C)N1CCN(CCN2CCC(n3cc(-c4ccccc4)c4cc(Cl)ccc43)CC2)C1=O [Compound 4q, 5-Chloro-3-phenyl-1-[1-[2-[3-(2-propyl)imidazolidin-2-on-1-yl]ethyl]-4-piperidyl)-1H-indole] | 3000 | 25
5 | Cc1ccc2c(c1)c(-c1ccc(F)cc1)cn2C1CCN(CCN2CCNC2=O)CC1 [Compound 4g, 3-(4-Fluorophenyl)-1-[1-[2-(imidazolidin-2-on-1-yl)ethyl]-4-piperidyl]-5-methyl-1H-indole] | 920 | 1.6
6 | Cc1ccc2c(c1)c(-c1ccc(F)cc1)cn2C1CCN(CCN2CCCC2=O)CC1 [Compound 4j, 3-(4-Fluorophenyl)-5-methyl-1-[1-[2-(2-pyrrolidinon-1-yl)ethyl]-4-piperidyl]-1H-indole, oxalate] | 1200 | 4.5
7 | O=C1OCCN1CCN1CCC(n2cc(-c3ccc(F)cc3)c3cc(F)ccc32)CC1 [Compound 4o, 5-Fluoro-3-(4-fluorophenyl)-1-[1-[2-(oxazolidin-2-on-3-yl)ethyl]-4-piperidyl]-1H-indole] | 790 | 37
8 | Cc1ccc2c(c1)c(-c1ccc(F)cc1)c(C)n2C1CCN(CCN2CCNC2=O)CC1 [Compound 7a, 2,5-Dimethyl-3-(4-fluorophenyl)-1-[1-[2-(imidazolidin-2-on-1-yl)ethyl]-4-piperidyl]-1H-indole] | 6900 | 3.4
9 | Cc1ccc2c(c1)C(c1ccc(F)cc1)CN2C1CCN(CCN2CCNC2=O)CC1 (centres unmarked) [Compound 18b, 2,3-Dihydro-3-(4-fluorophenyl)-1-[1-[2-(imidazolidin-2-on-1-yl)ethyl]-4-piperidyl]-5-methyl-1H-indole] | 1100 | 4.3
10 | CC(C)N1CCN(CCN2CCC(n3cc(-c4ccc(F)cc4)c4cc(F)ccc43)CC2)C1=O [Compound 4n, 5-Fluoro-3-(4-fluorophenyl)-1-[1-[2-[3-(2-propyl)imidazolidin-2-on-1-yl]ethyl]-4-piperidyl]-1H-indole] | 190 | 3.1
11 | Cc1c(-c2ccccc2)c2cc(Cl)ccc2n1C1=CCN(C)CC1 [Compound 6e, 5-Chloro-2-methyl-1-(1-methyl-1,2,3,6-tetrahydropyridin-4-yl)-3-phenyl-1H-indole, oxalate] | 1000 | 9.4
12 | O=C1NCCN1CCN1CCC(n2c(Br)c(-c3ccc(F)cc3)c3ccccc32)CC1 [Compound 4x, 2-Bromo-3-(4-fluorophenyl)-1-[1-[2-(imidazolidin-2-on-1-yl)ethyl]-4-piperidyl]-1H-indole] | 650 | 11
13 | CNC(=O)N(C)CCN1CCC(n2cc(-c3ccc(F)cc3)c3cc(C)ccc32)CC1 [Compound 15a, 1-[1-[2-(1,3-Dimethyl-1-ureido)ethyl]-4-piperidyl]-3-(4-fluorophenyl)-5-methyl-1H-indole, hydrochloride] | > 1000 | 1.8
